The record followed here is patent US20230050202A1, “ENGINEERED FIBROBLASTS AS CELL THERAPY TO TREAT CANCER VIA TUMOR STROMA STABILIZATION” (The Johns Hopkins University, priority 2020, published 2023).

Series [1] concerns αSMA expression in NIH-3T3 fibroblasts. The series is described as follows: αSMA immunofluorescence in fibroblasts, 67NR spheroid coculture. It counts as cell-based, mouse. On the procedure: (§1) Spheroid encapsulation with fibroblasts: for coculture, 40 μL collagen was used to re-suspend 2×10^5 NIH-3T3 cells after centrifugation. The fibroblasts-containing liquid collagen was then added to the glass bottom well where a spheroid was placed in its center. The mixture was allowed to gel at room temperature for 2 hours. 2 mL DMEM was then added into the well. The embedded spheroid was incubated for at least 1 day or longer, as indicated in the text, before being used.
(§2) ECM crosslinking. ECM-encapsulated 67NR spheroids were prepared as previously described. After 1-hour incubation, genipin (Sigma-Aldrich, G4796) was mixed with DMEM to reach final concertation of 0.5 mM and 1 mM. The solutions were then added to the samples and incubated for 24 hours. The DMSO-added DMEM were used as a control for the experiment. The samples were then washed with PBS for further usage.
(§3) Immunofluorescence. Samples were fixed in 4% paraformaldehyde for 30 minutes, permeabilized with 0.1% Triton X100 (Sigma-Aldrich, X100) in PBS for 30 minutes. PBS containing 2% bovine serum albumin (Sigma-Aldrich, A7906) and 0.1% Tween-20 (Promega) was then added to sample for 30 minutes for blocking. All antibody was diluted in PBS with 1% bovine serum albumin. The fixed cells were incubated with the primary antibody for overnight at 4° C., followed by washing using PBS for 3 times, and then incubated with the secondary antibody for 2 hours. After washing, the samples were immersed in PBS and stored in 4° C. for further usage. […]
(§4) Fibril coherence analysis was performed using Quantitative orientation measurement in orientationJ21. The immunostaining was quantified using Fiji/ImageJ software. […]
(§5) where II and AI denotes the fluorescence intensity, and the area of the cell, respectively. I2 and A2 denotes the fluorescence intensity, and the area of the larger region encompassing the cell and the surrounding background, respectively. […] The corrected fluorescence intensity was then recorded for each cell.

In series [2] the test system is 67NR-embedded ECM. The series is described as follows: ECM fibril alignment (coherence analysis) in 67NR spheroid-embedded ECM. Conditions: 0.5 mM genipin, 24 hours, vs control. It counts as cell-based, mouse. On the procedure:
Spheroid encapsulation without fibroblast: after the spheroid adhered to the glass bottom well via collagen, the liquid collagen kept at the 4° C. was poured to the well to embed the spheroid. 40 μL liquid collagen was slowly pipetted into the well and allowed to gel for 2 hours at room temperature. 2 mL DMEM was then added into the well. The embedded spheroid was incubated for at least 1 day or longer before being used.
as §2, §4
To determine whether 67NR spheroid alone is sufficient to align the fibrils, time-lapse imaging was performed by embedding EpH4-Ev and 67NR spheroids in ECM without fibroblasts. […] To quantify the degree of fibril alignment, coherence analysis 21 was performed. […] Fibril orientations within and outside the 300-μm perimeter from the spheroid were evaluated separately.

Series [3] relates to FSP1 expression in NIH-3T3 fibroblasts. The series is described as follows: FSP1 immunofluorescence in fibroblasts, 67NR spheroid coculture. It counts as cell-based, mouse. The procedure:
as §1, §2, §3, §4, §5

Another series relates to 67NR spheroids. Put plainly: Cytotoxicity in genipin-treated 67NR-embedded ECM. The class given is cell-based, mouse. The note with it: 0.5 mM genipin, 24 hours. On the procedure:
as §2
The corollary to the observation that ECM fibril alignment promotes CAF induction in the coculture is that suppressing such alignment will attenuate it. To confirm this, genipin, a biocompatible crosslinking reagent, was used to suppress the fibril reorganization. The optimal genipin concentration was identified to be 0.5 mM. […] Yet the fibril alignment was suppressed by 28% (FIGS. 5A-5B). […] Though ECM crosslinking might lead to CAF induction because of ECM stiffening, it was not the case in these experiments. […] Having had established the optimal genipin concentration to suppress fibril alignment, it was used to evaluate whether CAF induction in cocultured fibroblasts would be attenuated. […] To exclude the possibility that genipin directly downregulates CAF markers in fibroblasts, their expression was evaluated in genipin-treated samples containing fibroblasts only.

Series [4] deals with 67NR-embedded ECM. Put plainly: Line FRAP diffusion enhancement time in spheroid-embedded ECM. The class given is cell-based, mouse. The note with it: 0.5 mM genipin-treated 67NR-embedded ECM, 2,000 kDa FITC-dextran. On the procedure: ECM crosslinking. ECM-encapsulated 67NR spheroids were prepared as previously described. After 1-hour incubation, genipin (Sigma-Aldrich, G4796) was mixed with DMEM to reach final concertation of 0.5 mM and 1 mM. The solutions were then added to the samples and incubated for 24 hours. The DMSO-added DMEM were used as a control for the experiment. The samples were then washed with PBS for further usage. Fluorescence recovery after photobleaching. 10 mg/mL of 2,000 kDa fluorescein isothiocyanate (FITC)-Dextran (SigmaAldrich, FD2000S) was added to the collagen gel and incubated for 30 minutes at 37° C. […] The characteristic fluorescence recovery times τD, when 64% of the fluorescence intensity is recovered, was calculated based on the fitted curve. […] Line fluorescence recovery was performed after photobleaching (FRAP) to measure the diffusivity of the spheroid-embedded ECM. […] To assess whether there is enhancement in diffusion rates in the radial direction from the spheroid, the metric “diffusion enhancement time (τDE)” was introduced, defined as the difference in the characteristic fluorescence recovery times τD, when 64% of the fluorescence intensity is recovered, between the two stripes: […]) where rD(radial) represents the rD measured in the radial direction, and rD(orthogonal) in the corresponding orthogonal direction. […]

A short description of series [5]: Rheological measurement (LAOS) of crosslinked collagen gel. The class given is physicochemical. The procedure:
ECM crosslinking. ECM-encapsulated 67NR spheroids were prepared as previously described. After 1-hour incubation, genipin (Sigma-Aldrich, G4796) was mixed with DMEM to reach final concertation of 0.5 mM and 1 mM. The solutions were then added to the samples and incubated for 24 hours. The DMSO-added DMEM were used as a control for the experiment. The samples were then washed with PBS for further usage. Elastic modulus measurement. The Large […] Oscillatory Shear (LAOS) was used to test the shear modulus of the crosslinked and uncrosslinked collagen gel. The collagen gel was prepared in disks and subjected to sinusoidal rotational deformation. The amplitude of the applied strain (y) to the material was increased at a fixed rotational frequency (w) of 1 rad/s. The analysis utilized a viscoelastic stress response model wherein the shear stress is computed as a function of strain ranging from 0.01%-15%. The Fourier Transform method was utilized to quantify the nonlinear stress response of ECM samples under increasingly large angular shear strain. LAOS was performed using an Anton Paar Modular Compact Rheometer (MCR 302) with a parallel plate (diameter 8 mm) at 37° C. The measurement values of the shear modulus were then used obtain the elastic modulus by the formula: E=2G(1+v) where E is elastic modulus, G is shear modulus, and v is the Poisson ratio. The Poisson ratio was assumed to be 0.5.

In series [6] the test system is αSMA expression in human lung fibroblasts (MRCS). The series is described as follows: TGFβ1-mediated CAF induction (αSMA expression) in human lung fibroblasts. It counts as cell-based. The note with it: control fibroblasts, TGFβ1 10 ng/mL, vs non-treated group, p<0.001. From the text: Prototype STAR fibroblasts were generated by introducing the dominant negative form of RhoA (RhoA^T19N) into to human lung fibroblasts (MRCS) to reduce RhoA signaling, a key mediator for CAF phenotypes.

The mark [7] stands for this setting: fibroblast-only samples after genipin treatment.
[8] abbreviates: genipin-treated cocultures, fibroblasts outside 300-μm perimeter, treatment vs control.
The mark [9] stands for this setting: genipin-treated cocultures, fibroblasts within the 300-μm perimeter from the spheroid.

Consider `COC(=O)C1=CO[C@@H](O)[C@@H]2C(CO)=CC[C@H]12` [genipin], for which, in series [1] (setting [7]), the αSMA expression result is “remained unchanged”. For the same molecule, the αSMA expression decreased in series [1] (setting [8]) turned out to be 39%. The same molecule displayed a αSMA expression reduced in series [1] (setting [9]) of 33%. In the series on 67NR-embedded ECM [2], this molecule yielded a fibril alignment suppressed of 28%. Also, in series [3] (setting [7]), the FSP1 expression result was “remained unchanged”. Further, in series [3] (setting [8]), the FSP1 expression decreased amounted to 36%. In series [3] (setting [9]), the FSP1 expression reduced is 23%. In the series with 67NR spheroids, the cytotoxicity result is listed as “no observable cytotoxicity”. In addition, in the series on 67NR-embedded ECM [4], the “rDE value (diffusion enhancement time)” value is reported as “decreased to a negligible level”. The ECM stiffening result in series [5] (0.5 mM genipin, 24 hours) is recorded as “negligible ECM stiffening”. In series [5] (0.5 mM genipin-treated ECM), the “shear moduli vs uncrosslinked control” value is “comparable”. In series [5] (ECM treated with 0.5 mM genipin), the “elastic modulus of the ECM (mean±s.d.)” value is on record as 755±163 Pa. The molecule further yielded an ECM became stiffer in series [5] (ECM treated with 1 mM genipin vs un-crosslinked ECM) of 29%.
For the molecule “TGFβ1: cytokine used at 10 ng/mL to induce CAF phenotype in fibroblasts”, in series [6], the αSMA expression increase is 50%.
